Results as given in ChEMBL document CHEMBL3627701, “(2-Arylethenyl)-1,3,5-triazin-2-amines as a novel histamine H4 receptor ligands” (Eur J Med Chem, 2015).
One block for each compound: values may come before it. Activity calls are given as the source filed them. The rule behind the calls is not given here.

Legend:
[1] = molecular target: T1, Histamine H4 receptor (Homo sapiens, UniProt Q9H3N8); assay: Displacement of [3H]histamine from human H4 receptor expressed in Sf9 cell membranes co-expressing Galphai2 and Gbeta1gamma2 after 60 mins by liquid scintillation counting assay; format: cell-based
[2] = tested on: Mus musculus; assay: Antiinflammatory activity in albino Swiss mouse assessed as inhibition of carrageenan-induced paw edema at 25 mg/kg, po administered prior to carrageenan challenge measured after 1 to 3 hrs by plethysmometry relative to control; format: functional
[3] = tested on: Mus musculus; assay: Antiinflammatory activity in albino Swiss mouse assessed as inhibition of carrageenan-induced paw edema at 50 mg/kg, po administered prior to carrageenan challenge measured after 1 to 3 hrs by plethysmometry relative to control; format: functional
[4] = molecular target: T1, Histamine H4 receptor; assay: Antagonist activity at human H4R expressed in CHO cells assessed as inhibition of forskolin-induced cAMP accumulation after 30 mins by TR-FRET immunoassay; format: functional, cell-based
[5] = molecular target: Histamine H3 receptor (Homo sapiens) (UniProt Q9Y5N1); assay: Displacement of [3H]-N-alpha-methylhistamine from human H3 receptor expressed in HEK293 cells at >=30 uM after 60 mins by liquid scintillation counter assay; format: cell-based
[6] = tested on: Mus musculus; assay: Antiinflammatory activity in albino Swiss mouse assessed as inhibition of carrageenan-induced paw edema at 25 mg/kg, po administered prior to carrageenan challenge measured after 3 hrs by plethysmometry relative to control; format: functional
[7] = tested on: Mus musculus; assay: Antiinflammatory activity in albino Swiss mouse assessed as inhibition of carrageenan-induced paw edema at 25 mg/kg, po administered prior to carrageenan challenge measured after 2 hrs by plethysmometry relative to control; format: functional
[8] = tested on: Mus musculus; assay: Antiinflammatory activity in albino Swiss mouse assessed as inhibition of carrageenan-induced paw edema at 10 mg/kg, po administered prior to carrageenan challenge measured after 1 hr by plethysmometry relative to control; format: functional
[9] = tested on: Mus musculus; assay: Antiinflammatory activity in albino Swiss mouse assessed as inhibition of carrageenan-induced paw edema at 10 mg/kg, po administered prior to carrageenan challenge measured after 3 hrs by plethysmometry relative to control; format: functional
[10] = tested on: Mus musculus; assay: Antiinflammatory activity in albino Swiss mouse assessed as inhibition of carrageenan-induced paw edema at 25 mg/kg, po administered prior to carrageenan challenge measured after 1 hr by plethysmometry relative to control; format: functional
[11] = tested on: Mus musculus; assay: Antiinflammatory activity in albino Swiss mouse assessed as inhibition of carrageenan-induced paw edema at 50 mg/kg, po administered prior to carrageenan challenge measured after 1 hr by plethysmometry relative to control; format: functional
[12] = tested on: Mus musculus; assay: Antiinflammatory activity in albino Swiss mouse assessed as inhibition of carrageenan-induced paw edema at 10 mg/kg, po administered prior to carrageenan challenge measured after 2 hrs by plethysmometry relative to control; format: functional
[13] = tested on: Mus musculus; assay: Antiinflammatory activity in albino Swiss mouse assessed as inhibition of carrageenan-induced paw edema at 50 mg/kg, po administered prior to carrageenan challenge measured after 3 hrs by plethysmometry relative to control; format: functional
[14] = tested on: Mus musculus; assay: Antiinflammatory activity in albino Swiss mouse assessed as inhibition of carrageenan-induced paw edema at 50 mg/kg, po administered prior to carrageenan challenge measured after 2 hrs by plethysmometry relative to control; format: functional
[15] = Antiproliferative activity against human IMR32 cells assessed as inhibition of cell viability after 48 hrs; format: cell-based; conditions: IMR-32, 48 h
[16] = tested on: Liver microsome; assay: Retention time in human liver microsomes at 50 uM after 48 hrs by LC-MS analysis; format: ADME
[17] = molecular target: T2, Histamine H4 receptor (Mus musculus, UniProt Q91ZY2); assay: Displacement of [3H]histamine from mouse H4 receptor expressed in HEK293 cell membranes co-expressing Galphai2 and Gbeta1gamma2 after 1 hr by liquid scintillation counting assay
T2 sequence (Q91ZY2 whole entry): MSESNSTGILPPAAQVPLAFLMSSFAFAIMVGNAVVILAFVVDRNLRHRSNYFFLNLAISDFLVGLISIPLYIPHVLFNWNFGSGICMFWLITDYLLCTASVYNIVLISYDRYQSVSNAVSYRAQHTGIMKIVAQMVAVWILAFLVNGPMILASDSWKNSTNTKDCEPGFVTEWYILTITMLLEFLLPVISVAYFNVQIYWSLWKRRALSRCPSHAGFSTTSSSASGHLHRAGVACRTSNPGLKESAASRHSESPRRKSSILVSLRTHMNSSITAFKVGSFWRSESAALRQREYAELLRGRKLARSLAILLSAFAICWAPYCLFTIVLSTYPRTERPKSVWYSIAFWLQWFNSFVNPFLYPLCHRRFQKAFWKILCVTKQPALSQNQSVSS

[18] = tested on: Liver microsome; assay: Drug metabolism in human liver microsomes assessed as metabolite M1 formation at 50 uM after 48 hrs by LC-MS analysis; format: ADME
[19] = tested on: Liver microsome; assay: Drug metabolism in human liver microsomes assessed as metabolite M2 formation at 50 uM after 48 hrs by LC-MS analysis; format: ADME
[20] = tested on: HEK293; assay: Antiproliferative activity against HEK293 cells assessed as inhibition of cell viability at 0.01 to 250 uM after 48 hrs; format: cell-based; conditions: human, hek293, 48 h
[21] = Antiproliferative activity against human IMR32 cells assessed as inhibition of cell viability at 0.01 to 250 uM after 48 hrs; format: cell-based; conditions: imr-32, 48 h
[22] = tested on: Mus musculus; assay: Antiinflammatory activity in albino Swiss mouse assessed as inhibition of carrageenan-induced paw edema at 10 mg/kg, po administered prior to carrageenan challenge measured after 1 to 3 hrs by plethysmometry relative to control; format: functional
[23] = Ratio of IC50 for doxorubicin to antiproliferative activity for test compound against human IMR32 cells; format: cell-based, IMR-32; conditions: read-out: Ratio IC50
[24] = molecular target: CYP3A4 (Homo sapiens, UniProt P08684); assay: Inhibition of human recombinant CYP3A4 assessed as conversion of luciferin-PPXE to D-luciferin at 25 uM by luminescence Glo assay relative to control; format: ADME; conditions: recombinant CYP3A4, probe luciferin-PPXE
[25] = tested on: Salmonella typhimurium; assay: Genotoxicity in Salmonella typhimurium TA98 at 1 to 100 uM after 48 hrs by MPF assay; format: toxicity, organism-based; conditions: salmonella enterica subsp. enterica serovar typhimurium
[26] = tested on: Liver microsome; assay: Drug level in human liver microsomes treated with 50 uM 4-[(E)-2-(3-chlorophenyl)ethenyl]-6-(4-methylpiperazin-1-yl)-1,3,5-triazin-2-amine assessed as compound formation after 48 hrs by LC-MS analysis; format: ADME

Chain of Histamine H3 receptor (Homo sapiens) (Q9Y5N1 whole entry): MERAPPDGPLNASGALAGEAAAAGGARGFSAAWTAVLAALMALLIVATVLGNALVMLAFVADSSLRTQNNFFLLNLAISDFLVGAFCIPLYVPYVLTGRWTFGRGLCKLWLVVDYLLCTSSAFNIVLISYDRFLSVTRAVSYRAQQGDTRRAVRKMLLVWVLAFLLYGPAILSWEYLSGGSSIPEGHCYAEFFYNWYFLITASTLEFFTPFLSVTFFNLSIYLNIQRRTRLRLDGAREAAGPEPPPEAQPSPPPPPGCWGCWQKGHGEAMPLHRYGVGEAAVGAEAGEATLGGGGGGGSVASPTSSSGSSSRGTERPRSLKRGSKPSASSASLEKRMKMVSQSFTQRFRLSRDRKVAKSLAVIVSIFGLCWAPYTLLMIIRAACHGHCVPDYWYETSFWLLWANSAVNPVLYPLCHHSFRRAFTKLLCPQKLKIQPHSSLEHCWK
Chain of CYP3A4 (P08684 whole entry): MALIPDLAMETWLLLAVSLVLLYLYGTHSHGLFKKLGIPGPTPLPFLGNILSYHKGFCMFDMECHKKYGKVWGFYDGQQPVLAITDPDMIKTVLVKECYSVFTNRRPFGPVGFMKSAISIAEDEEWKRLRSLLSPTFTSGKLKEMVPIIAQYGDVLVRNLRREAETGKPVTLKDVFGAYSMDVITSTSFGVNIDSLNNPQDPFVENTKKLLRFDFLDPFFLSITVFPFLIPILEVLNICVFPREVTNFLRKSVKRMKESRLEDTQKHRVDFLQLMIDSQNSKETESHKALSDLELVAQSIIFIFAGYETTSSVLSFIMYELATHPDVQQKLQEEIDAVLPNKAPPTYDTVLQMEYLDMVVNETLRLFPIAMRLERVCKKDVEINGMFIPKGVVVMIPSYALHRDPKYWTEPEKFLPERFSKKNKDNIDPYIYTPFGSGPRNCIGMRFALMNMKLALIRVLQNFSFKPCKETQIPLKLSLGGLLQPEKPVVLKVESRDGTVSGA

SMILES: CC(C(=O)O)c1cccc(C(=O)c2ccccc2)c1 (stereo unspecified) [KETOPROFEN]
inhibition in vivo at 25 mg/kg [6]: 67%
inhibition in vivo at 25 mg/kg [7]: 54%
inhibition in vivo at 10 mg/kg [8]: 27%
inhibition in vivo at 10 mg/kg [9]: 63%
inhibition in vivo at 25 mg/kg [10]: 20%
inhibition in vivo at 50 mg/kg [11]: 67%
inhibition in vivo at 10 mg/kg [12]: 55%
inhibition in vivo at 50 mg/kg [13]: 77%
inhibition in vivo at 50 mg/kg [14]: 71%

SMILES: Cc1ccc(/C=C/c2nc(N)nc(N3CCN(C)CC3)n2)cc1
Ki [1]: 37.4 µM

SMILES: COc1cccc2c1C(=O)c1c(O)c3c(c(O)c1C2=O)C[C@@](O)(C(=O)CO)C[C@@H]3O[C@H]1C[C@H](N)[C@H](O)[C@H](C)O1 [DOXORUBICIN]
IC50 [15]: 0.0051 µM

SMILES: CN1CCN(c2nc(N)nc(/C=C/c3ccccc3)n2)CC1
Ki [1]: 5.21 µM

SMILES: Nc1nc(/C=C/c2cccc(Cl)c2)nc(N2CCNCC2)n1
Retention_time [16]: 3.55 min
Drug metabolism [26]: metabolite_detected

SMILES: CN1CCN(c2nc(N)nc(/C=C/c3ccc(Cl)cc3Cl)n2)CC1
Ki [1]: 9.04 µM

SMILES: CN1CCN(c2nc(N)nc(/C=C/c3cccc4ccccc34)n2)CC1
Ki [1]: 30 µM

SMILES: CN1CCN(c2nc(N)nc(/C=C/c3ccccc3Cl)n2)CC1
Ki [1]: 4.86 µM

Continued by falling Ki [1], values first:

Ki [1]: 4.21 µM
SMILES: CN1CCN(c2nc(N)nc(/C=C/c3ccc(Cl)cc3)n2)CC1

Ki [1]: 3.79 µM
SMILES: CN1CCN(c2nc(N)nc(/C=C/c3ccc4ccccc4c3)n2)CC1

Ki [1]: 3.52 µM
SMILES: CN1CCN(c2nc(N)nc(/C=C/c3cccc(F)c3)n2)CC1

Ki [1]: 2.64 µM
SMILES: CN1CCN(c2nc(N)nc(/C=C/c3cccc(C#N)c3)n2)CC1

Ki [1]: 2.57 µM
SMILES: CN1CCN(c2nc(N)nc(/C=C/c3cccc([N+](=O)[O-])c3)n2)CC1

Ki [1]: 2.52 µM
SMILES: CN1CCN(c2nc(N)nc(/C=C/c3c[nH]c4ccccc34)n2)CC1

Ki [1]: 2.45 µM
SMILES: CN1CCN(c2nc(N)nc(/C=C/c3cccc(C(F)(F)F)c3)n2)CC1

Ki [1]: 2.23 µM
SMILES: Cc1ccccc1/C=C/c1nc(N)nc(N2CCN(C)CC2)n1

Ki [1]: 1.78 µM
SMILES: CN1CCN(c2nc(N)nc(/C=C/c3ccc(Cl)c(Cl)c3)n2)CC1

Ki [1]: 1.14 µM
SMILES: CN1CCN(c2nc(N)nc(/C=C/c3cccc(Br)c3)n2)CC1

Ki [1]: 0.703 µM
IC50 [4]: 0.606 µM
inhibition [5]: Active
SMILES: Cc1cccc(/C=C/c2nc(N)nc(N3CCN(C)CC3)n2)c1
inhibition in vivo at 25 mg/kg [2]: 53%
inhibition in vivo at 50 mg/kg [3]: 88%

Retention_time [16]: 3.63 min
Ki [17]: 0.854 µM
Ki [1]: 0.253 µM
Drug metabolism [18]: metabolite_detected
Drug metabolism [19]: metabolite_detected
IC50 [4]: 0.439 µM
inhibition [5]: Active
inhibition at 25 µM [24]: 58%
SMILES: CN1CCN(c2nc(N)nc(/C=C/c3cccc(Cl)c3)n2)CC1
inhibition in vivo at 25 mg/kg [6]: 65%
inhibition in vivo at 25 mg/kg [7]: 58%
inhibition in vivo at 25 mg/kg [10]: 59%
inhibition in vivo at 50 mg/kg [11]: 69%
Activity [20]: Non-toxic
Activity [21]: Non-toxic
inhibition in vivo at 10 mg/kg [22]: 50%
selectivity ratio [23]: > 1000
Activity [25]: Non-toxic
inhibition in vivo at 50 mg/kg [13]: 67%
inhibition in vivo at 50 mg/kg [14]: 62%
